These results are taken from patent publication US9012499B2, “Pharmaceutical composition comprising oseltamivir phosphate” (Chugai Seiyaku Kabushiki Kaisha, priority 2006, dated 2015).

Data set [1] is described as follows: Color development of sugars and sugar alcohols mixed with oseltamivir phosphate (Example 1). Conditions: nine parts by weight of test sample and one part of oseltamivir phosphate; for Coloring by mixing with sugars and sugar alcohols, rank of color difference ΔE*, 40° C., 75% RH, one month (open): bottle open; for Coloring by mixing with sugars and sugar alcohols, rank of color difference ΔE*, 60° C. for 2 weeks (sealed): sealed bottle. It counts as physicochemical. As for the experimental part: Various samples of sugars and sugar alcohols were mixed with oseltamivir phosphate and the color development was confirmed by the following method. Nine parts by weight of a test sample and one part by weight of oseltamivir phosphate were mixed in a mortar, and the mixture was transferred to a No. 1 standard brown glass bottle (volume: 14 ml) and the bottle was tightly sealed by a polyethylene middle stopper and a polypropylene screw cap. The color of the mixture immediately after mixing was measured by a color difference meter. The mixture was kept in the following two conditions: i) 2 weeks in a 60° C. incubator, or ii) one month in a 40° C. incubator at 75% RH while the bottle was open. Thereafter, the color of the mixture was measured. The color difference before and after the storage ΔE*(CIE L*a*b*) was measured. The measurement of color difference was carried out according to JIS Z-8722, based on 0-45° rear spectrophotometric method using a spectrophotometric color difference meter (SE-2000) (Nippon Denshoku Ltd.).
The A, B and C rank in the table represents ΔE*≦2.5, 2.5<ΔE*≦5.0 and ΔE*>5.0, respectively.

Data set [2] is described as follows: Color change of wet-granulated sugar alcohol/oseltamivir phosphate formulation after storage (Example 2). Format: physicochemical. Conditions: 27 g additive + 3 g oseltamivir phosphate, wet granulation with water; 60° C. for 4 weeks under a tight seal. The method, then:
Twenty seven grams of a sugar alcohol and 3 g of oseltamivir phosphate were mixed in a mortar, and then kneaded by adding 1 mL of water to carry out the wet granulation. The mixture was dried in a 50° C. constant temperature drying oven for 3 hr to reduce the water content of the formulation to 1% by weight or less. The formulation was kept at 60° C. for 4 weeks under a tight seal and the change of color before and after the storage was measured by a color difference meter.

Data set [3] is described as follows: Equilibrium water content of sugars and sugar alcohols (DVS-1). It counts as physicochemical. The note with it: 25° C., relative humidity 70%. As for the experimental part: Sugars and sugar alcohols (excipients) used in the pharmaceutical composition of the present invention have a characteristic that their equilibrium water content is 1% by weight or less at 25° C. and at 70% relative humidity. That is, the equilibrium water content may be obtained by leaving the samples (sugars or sugar alcohols) in the air that has been held in the predetermined condition of 25° C. and 70% relative humidity for a long time, and then by measuring when the water content in the samples become constant.
(1) Method for Measuring Equilibrium Water Content
Equilibrium water content (25° C., relative humidity 70%) of sugars and sugar alcohols can be measured by the method using a DVS-1 (Surface Measurement Systems Ltd.). The condition for measurement is as follows.
Quantity of samples: 50 to 100 mg (intending to scale 75 mg)
Measurement temperature: 25±1° C.
Setting range of relative humidity: 0 to 100% RH
Measurement step of relative humidity: up to 10%
Hold time: If change of the weight is less than 0.02%, the measurement enters next step, but the change is not stable, the step lasts up to 120 min.

The test system of data set [4] is neuraminidase of influenza virus. Conditions: Patent Document 1 (WO1998/007685); cited from earlier work.

Take `OC[C@H]1O[C@H](O[C@H]2[C@H](O)[C@@H](O)C(O)O[C@@H]2CO)[C@H](O)[C@@H](O)[C@@H]1O` (mixture of isomers) [Maltose]: in data set [1], the “Coloring by mixing with sugars and sugar alcohols, rank of color difference ΔE*, 40° C., 75% RH, one month (open)” value was “C (ΔE*>5.0)”; the “Coloring by mixing with sugars and sugar alcohols, rank of color difference ΔE*, 60° C. for 2 weeks (sealed)” value is reported as “C (ΔE*>5.0)”.
On to `OC[C@@H](O)[C@@H](O)[C@H](O)[C@H](O)CO` [D-Mannitol], for which, in data set [1], the “Coloring by mixing with sugars and sugar alcohols, rank of color difference ΔE*, 40° C., 75% RH, one month (open)” value was “A (ΔE*≦2.5)”; the “Coloring by mixing with sugars and sugar alcohols, rank of color difference ΔE*, 60° C. for 2 weeks (sealed)” value is given as “A (ΔE*≦2.5)”. Further, the “Color difference ΔE*” value in data set [2] came out at 3.4.
`OC[C@@H](O)[C@@H](O)[C@H](O)[C@@H](O)CO` [D-sorbitol 1, D-sorbitol]: in data set [2], the “Color difference ΔE*” value amounted to 14.6.
In the case of `OC[C@@H](O)[C@@H](O)[C@H](O)[C@@H](O)CO` [D-sorbitol 2, D-sorbitol], in data set [2], the “Color difference ΔE*” value was determined as 11.2.
In data set [3], `OC[C@@H](O)[C@@H](O)[C@H](O)[C@@H](O)CO` [D-sorbitol] displayed an Equilibrium water content of 1.7%. Besides, in data set [1], the “Coloring by mixing with sugars and sugar alcohols, rank of color difference ΔE*, 40° C., 75% RH, one month (open)” value is reported as “C (ΔE*>5.0)”; the “Coloring by mixing with sugars and sugar alcohols, rank of color difference ΔE*, 60° C. for 2 weeks (sealed)” value is given as “C (ΔE*>5.0)”.
Take `OC[C@@H](O)[C@@H](O)CO` [Erythritol]: the Equilibrium water content entry in data set [3] is “*Equilibrium water content (25° C., relative humidity 70%) is 0.1%, the contents of glucose and mannose as impurities are <0.001% and 0.001%, respectively”. In data set [3] (listed as erythritol), this compound gave an Equilibrium water content of 0.1%. In data set [1], the “Coloring by mixing with sugars and sugar alcohols, rank of color difference ΔE*, 40° C., 75% RH, one month (open)” value is given as “B (2.5<ΔE*≦5.0)”; the “Coloring by mixing with sugars and sugar alcohols, rank of color difference ΔE*, 60° C. for 2 weeks (sealed)” value is “A (ΔE*≦2.5)”. Besides, the “Color difference ΔE*” value in data set [2] was found to be 4.7.
Consider `CCOC(=O)C1=C[C@@H](OC(CC)CC)[C@H](NC(C)=O)[C@@H](N)C1.O=P(O)(O)O` [Oseltamivir phosphate, (−)-ethyl (3R,4R,5S)-4-acetamido-5-amino-3-(1-ethylpropoxy)-cyclohex-1-ene-1-carboxylate monophosphate], for which, in data set [1], the “Coloring by mixing with sugars and sugar alcohols, rank of color difference ΔE*, 40° C., 75% RH, one month (open)” value is “A (ΔE*≦2.5)”; the “Coloring by mixing with sugars and sugar alcohols, rank of color difference ΔE*, 60° C. for 2 weeks (sealed)” value is “A (ΔE*≦2.5)”. The “Inhibitory activity against neuraminidase of influenza virus” value in data set [4] is “potent inhibitory activity”.
On to `OC[C@H]1O[C@@](CO)(O[C@H]2O[C@H](CO)[C@@H](O)[C@H](O)[C@H]2O)[C@@H](O)[C@@H]1O` [Sucrose], for which, in data set [1], the “Coloring by mixing with sugars and sugar alcohols, rank of color difference ΔE*, 40° C., 75% RH, one month (open)” value is listed as “B (2.5<ΔE*≦5.0)”; the “Coloring by mixing with sugars and sugar alcohols, rank of color difference ΔE*, 60° C. for 2 weeks (sealed)” value is reported as “A (ΔE*≦2.5)”.
In the case of `OC[C@@H](O)[C@H](O)[C@@H](O)CO` [Xylitol], in data set [1], the “Coloring by mixing with sugars and sugar alcohols, rank of color difference ΔE*, 40° C., 75% RH, one month (open)” value is “C (ΔE*>5.0)”; the “Coloring by mixing with sugars and sugar alcohols, rank of color difference ΔE*, 60° C. for 2 weeks (sealed)” value is “B (2.5<ΔE*≦5.0)”.
